Reference: PMC4153658, “A Pentasymmetric Open Channel Blocker for Cys-Loop Receptor Channels” (PLoS ONE, 2014)
Where “and” joins values, the source holds several entries; their conditions need not be identical. Identical values can stand only once. Like-named read-outs stand apart in the source and are kept apart here.

What was measured:
[1] = molecular target: T1, α1β2γ2 rat GABAA receptors (Rattus norvegicus, UniProt P18508+P62813+P63138); type: cell-based; settings: for IC50: GABA EC10
T1 construct: expressed in transfected cells; host or cells: Xenopus laevis oocytes, cRNA injection
Method: (§1) Capped cRNAs were synthesized from the linearized plasmids. A poly-A tail of about 400 residues was added to each transcript using yeast poly-A polymerase. The concentration of the cRNA was quantified on a formaldehyde gel using Radiant Red stain for visualization of the RNA. Known concentrations of RNA ladder were loaded as standard on the same gel. cRNAs were precipitated in ethanol/isoamylalcohol 19∶1, the dried pellet dissolved in water and stored at −80°C. Xenopus oocytes were prepared, injected and defollicated as described previously (Research approved by the Kantonstierarzt, Kantonaler Veterinärdienst Bern (Animal research permit BE98/12)). Briefly, Xenopus laevis oocytes were injected with 50 nL of the cRNA solution containing wild type or mutated α1, β2 and γ2 subunits at a concentration of 10 nM: 10 nM: 50 nM and then incubated in modified Barth's solution at 18°C for at least 24 h before the measurements. […] Currents were measured using a home-built two-electrode voltage clamp amplifier in combination with a XY-recorder or digitized using a PowerLab 2/20 (AD Instruments) using the computer program Chart. Tests with a model oocyte were performed to ensure linearity in the larger current range. […] Similar experiments were performed with picrotoxin. Due to the difficulty of washing out picrotoxin out from the oocytes two different oocytes were used to test the inhibition before and after the treatment with the cysteine reactive compound. Inhibition after treatment was divided by % inhibition before treatment. To test the ability of PCCP^− to protect the engineered cysteines from covalent modification by MTSET^+, we used the same sequence of perfusion except that MTSET^+ was co-applied with 1 mM PCCP^−. Results were obtained on 3–4 single oocytes for each receptor.

[2] = molecular target: T2, α1L263Cβ2γ2 GABAA receptor (Rattus norvegicus, UniProt P18508+P62813+P63138, L290C); assay: Two-electrode voltage clamp, mutant α1L263Cβ2γ2 in Xenopus oocytes; type: cell-based
T2 construct: expressed in transfected cells; host or cells: Xenopus laevis oocytes, cRNA injection
Method: as §1, with “Due to the difficulty of washing out picrotoxin out from the oocytes two different oocytes were used to test the inhibition before and after the treatment with the cysteine reactive compound. Inhibition after treatment was divided by % inhibition before treatment. To test the ability of PCCP^− to protect the engineered cysteines from covalent modification by MTSET^+, we used the same sequence of perfusion except that MTSET^+ was co-applied with 1 mM PCCP^−. Results were obtained on 3–4 single oocytes for each receptor.” left out

[3] = molecular target: T3, α1V256Cβ2γ2 GABAA receptor (Rattus norvegicus, UniProt P18508+P62813+P63138, V283C); assay: Two-electrode voltage clamp, mutant α1V256Cβ2γ2 in Xenopus oocytes; type: cell-based; settings: for IC50: read-out: IC50 mean ± SD for inhibition of GABA-activated current
T3 construct: expressed in transfected cells; host or cells: Xenopus laevis oocytes, cRNA injection
Method: as §1

[4] = test system: Glycine heteromeric receptors; assay: Inhibition of heteromeric glycine receptors expressed in Xenopus oocytes; type: cell-based; settings: compared with GABAA receptors
[5] = molecular target: T4, α1β2δ rat GABAA receptors (Rattus norvegicus, UniProt P18506+P62813+P63138); assay: Concentration inhibition curve, α1β2δ GABAA receptors in Xenopus oocytes; type: cell-based; settings: GABA EC10; n = 4
T4 construct: expressed in transfected cells; host or cells: Xenopus laevis oocytes, cRNA injection

[6] = molecular target: T5, α1β2γ2 rat GABAA receptors (Rattus norvegicus); assay: Concentration inhibition curve, first receptor named in b22 / Figure 4A; type: cell-based; settings: GABA EC10; n = 4; receptor printed as α1β2γ2
T5 construct: expressed in transfected cells; host or cells: Xenopus laevis oocytes, cRNA injection
Method: as §1, with “Due to the difficulty of washing out picrotoxin out from the oocytes two different oocytes were used to test the inhibition before and after the treatment with the cysteine reactive compound. Inhibition after treatment was divided by % inhibition before treatment. To test the ability of PCCP^− to protect the engineered cysteines from covalent modification by MTSET^+, we used the same sequence of perfusion except that MTSET^+ was co-applied with 1 mM PCCP^−. Results were obtained on 3–4 single oocytes for each receptor.” left out

[7] = molecular target: T6, α1T267Cβ2γ2 GABAA receptor (Rattus norvegicus, UniProt P18508+P62813+P63138, T294C); assay: Two-electrode voltage clamp, mutant α1T267Cβ2γ2 in Xenopus oocytes; type: cell-based
T6 construct: expressed in transfected cells; host or cells: Xenopus laevis oocytes, cRNA injection
Method: as §1, with “Due to the difficulty of washing out picrotoxin out from the oocytes two different oocytes were used to test the inhibition before and after the treatment with the cysteine reactive compound. Inhibition after treatment was divided by % inhibition before treatment. To test the ability of PCCP^− to protect the engineered cysteines from covalent modification by MTSET^+, we used the same sequence of perfusion except that MTSET^+ was co-applied with 1 mM PCCP^−. Results were obtained on 3–4 single oocytes for each receptor.” left out

[8] = test system: non-injected oocytes; assay: Currents induced in non-injected Xenopus oocytes; type: cell-based, Xenopus laevis; settings: holding potential −80 mV
[9] = test system: RDL Drosophila GABAA receptors, mutation A302S versus wild type; assay: Concentration inhibition curves in wild type and mutant RDL Drosophila GABAA receptor; type: cell-based; settings: GABA EC10
[10] = molecular target: T7, α1T260Cβ2γ2 GABAA receptor (Rattus norvegicus, UniProt P18508+P62813+P63138, T287C); type: cell-based; settings: read-out: IC50 mean ± SD for inhibition of GABA-activated current
T7 construct: expressed in transfected cells; host or cells: Xenopus laevis oocytes, cRNA injection
Method: as §1

[11] = test system: α1T260Cβ2γ2 GABAA receptor; type: cell-based, rat
Method: as §1

[12] = molecular target: T8, α1T264Cβ2γ2 GABAA receptor (Rattus norvegicus, UniProt P18508+P62813+P63138, T291C); assay: Two-electrode voltage clamp, mutant α1T264Cβ2γ2 in Xenopus oocytes; type: cell-based
T8 construct: expressed in transfected cells; host or cells: Xenopus laevis oocytes, cRNA injection
Method: as §1, with “Due to the difficulty of washing out picrotoxin out from the oocytes two different oocytes were used to test the inhibition before and after the treatment with the cysteine reactive compound. Inhibition after treatment was divided by % inhibition before treatment. To test the ability of PCCP^− to protect the engineered cysteines from covalent modification by MTSET^+, we used the same sequence of perfusion except that MTSET^+ was co-applied with 1 mM PCCP^−. Results were obtained on 3–4 single oocytes for each receptor.” left out

[13] = molecular target: T9, α1T261Cβ2γ2 GABAA receptor (Rattus norvegicus, UniProt P18508+P62813+P63138, T288C); assay: Two-electrode voltage clamp, mutant α1T261Cβ2γ2 in Xenopus oocytes; type: cell-based; settings: read-out: IC50 mean ± SD for inhibition of GABA-activated current
T9 construct: expressed in transfected cells; host or cells: Xenopus laevis oocytes, cRNA injection
Method: as §1, with “Due to the difficulty of washing out picrotoxin out from the oocytes two different oocytes were used to test the inhibition before and after the treatment with the cysteine reactive compound. Inhibition after treatment was divided by % inhibition before treatment. To test the ability of PCCP^− to protect the engineered cysteines from covalent modification by MTSET^+, we used the same sequence of perfusion except that MTSET^+ was co-applied with 1 mM PCCP^−. Results were obtained on 3–4 single oocytes for each receptor.” left out

[14] = test system: cysteine mutant α1β2γ2 GABAA receptors; assay: Protection of engineered cysteines from covalent modification by MTSET^+ + GABA; type: cell-based, rat; settings: 1 mM inhibitor present during MTSET^+ + GABA application
Method: as §1, with “Due to the difficulty of washing out picrotoxin out from the oocytes two different oocytes were used to test the inhibition before and after the treatment with the cysteine reactive compound. Inhibition after treatment was divided by % inhibition before treatment. To test the ability of PCCP^− to protect the engineered cysteines from covalent modification by MTSET^+, we used the same sequence of perfusion except that MTSET^+ was co-applied with 1 mM PCCP^−. Results were obtained on 3–4 single oocytes for each receptor.” left out

[15] = test system: Glycine homomeric receptors; assay: Inhibition of homomeric glycine receptors expressed in Xenopus oocytes; type: cell-based; settings: compared with GABAA receptors
[16] = molecular target: T10, α1A253Cβ2γ2 GABAA receptor (Rattus norvegicus, UniProt P18508+P62813+P63138, A280C); assay: Two-electrode voltage clamp, mutant α1A253Cβ2γ2 in Xenopus oocytes; type: cell-based; settings: read-out: IC50 mean ± SD for inhibition of GABA-activated current
T10 construct: expressed in transfected cells; host or cells: Xenopus laevis oocytes, cRNA injection
Method: as §1, with “Due to the difficulty of washing out picrotoxin out from the oocytes two different oocytes were used to test the inhibition before and after the treatment with the cysteine reactive compound. Inhibition after treatment was divided by % inhibition before treatment. To test the ability of PCCP^− to protect the engineered cysteines from covalent modification by MTSET^+, we used the same sequence of perfusion except that MTSET^+ was co-applied with 1 mM PCCP^−. Results were obtained on 3–4 single oocytes for each receptor.” left out

[17] = molecular target: ELIC (Dickeya chrysanthemi, UniProt P0C7B7); settings: read-out: Concentration required for half-maximal inhibition
Method: as §1, with “Due to the difficulty of washing out picrotoxin out from the oocytes two different oocytes were used to test the inhibition before and after the treatment with the cysteine reactive compound. Inhibition after treatment was divided by % inhibition before treatment. To test the ability of PCCP^− to protect the engineered cysteines from covalent modification by MTSET^+, we used the same sequence of perfusion except that MTSET^+ was co-applied with 1 mM PCCP^−. Results were obtained on 3–4 single oocytes for each receptor.” left out

[18] = read-out: IC50 mean ± SD for inhibition of GABA-activated current
[19] = wild type, end of 1 min co-application, −80 mV, read-out: IC50 mean ± SD for inhibition of GABA-activated current

## C[N+](C)(C)CCSS(C)(=O)=O [MTSET^+, reference compound]
[1]; wild type, preliminary experiments
  Effect of treatment with cysteine reactive compound on wild type receptors: unaffected

## N#CC1=C(C#N)C(C#N)C(C#N)=C1C#N [PCCP^−, pentacyanocyclopentdienyl anion]
[2]
  Change in ratio of % inhibition after/before MTSET^+ treatment in the absence of GABA: significant increase
[2]; printed α1T263Cβ2γ2, 5 mM MTSET^+ + 100 µM GABA, inhibitor at about IC50
  Change in % inhibition after MTSET^+ + GABA treatment: significant increase
[3]
  Change in % inhibition after MTSET^+ + GABA treatment: significant increase
  IC50: 62.2 ± 22.4 µM
[4]
  Inhibition by PCCP^−: similarly inhibited
[5]
  IC50: 0.71 ± 0.28 µM
[6]
  IC50: 12.5 ± 4.8 µM
[7]
  Change in % inhibition after MTSET^+ + GABA treatment: significant increase
[7]; [18]
  IC50: 0.77 ± 0.11 µM
[1]; GABA EC1, apparent desensitization and off-current
  Concentrations inducing an open-channel block: > 1 µM
[1]; compounds 1–4 tested
  Inhibition of recombinant α1β2γ2 GABAA receptors, preliminary evaluation: highly active
[1]; currents elicited by low GABA (EC1), highly variable between oocytes
  Concentrations at which currents were stimulated: 0.3 to 10 µM
[1]; estimated with Woodhull equation from IC50 at −120, −80, −40 mV
  δ, fraction of the voltage field sensed by the blocker from the outside of the membrane: ~0.7
[1]; membrane potential −40 mV, n = 3, read-out: IC50
  IC50: 1.8 ± 0.8 µM
[1]; membrane potential −80 mV, voltage-dependence experiment, n = 3, read-out: IC50
  IC50: 6.3 ± 1.3 µM
[1]; membrane potential −120 mV, n = 3, read-out: IC50
  IC50: 16.2 ± 1.3 µM
[1]; presence of 2 µM or 10 µM PCCP^−, currents after 1 min GABA
  Shift of the GABA concentration response curve: leftward shift
[1]; [19]
  IC50: 2.6 µM and 2.58 µM
[1]; wild type, treatment applied for 1 min
  Effect of MTSET^+ + GABA treatment on the affinity for PCCP^−: no effect
[8]
  Concentration inducing a current in non-injected oocytes: ≥ 10 µM
[9]
  Reduction in sensitivity (difference in IC50) between wild type and mutant receptors: about 2 fold
[10]
  IC50: 0.85 ± 0.46 µM
[11]
  Change in % inhibition after MTSET^+ + GABA treatment: significant increase
[12]
  Change in % inhibition after MTSET^+ + GABA treatment: significant increase
[12]; [18]
  IC50: 3.15 ± 0.48 µM
[13]
  IC50: 46.4 ± 7.25 µM
[14]
  Prevention of the MTSET^+ + GABA induced change in inhibitor sensitivity: could be prevented
[15]
  Inhibition by PCCP^−: similarly inhibited
[16]
  IC50: 2.63 ± 0.31 µM
[17]
  IC50: ~100 µM

## picrotoxin [reference compound]
[3]
  Change in % inhibition after MTSET^+ + GABA treatment: significant decrease
  IC50: 0.74 ± 0.36 µM
[1]; [19]
  IC50: 2.02 ± 0.89 µM
[9]
  Reduction in sensitivity (difference in IC50) between wild type and mutant receptors: 7 fold
[10]; α1T260C mutant, GABA EC10, −80 mV, before MTSET^+ treatment
  IC50: 1.31 ± 0.41 µM
[11]; α1T260C mutant, 5 mM MTSET^+ + 100 µM GABA, inhibitor at about IC50
  Change in % inhibition after MTSET^+ + GABA treatment: significant decrease
[14]
  Prevention of the MTSET^+ + GABA induced change in inhibitor sensitivity: could not be prevented
